From patent publication US12098118B2 (Regents of the University of Minnesota, priority 2018, dated 2024)
Where two headings read alike, the source gives them in different places.

Assays:
mice [1] = experiment: acute in vivo bioassay of spinal opioid analgesic tolerance (ENDO-2 pre-treatment, warm water immersion tail flick test)
Description: To evaluate the effects of the compounds in opioid tolerance an acute in vivo bioassay of opioid analgesic tolerance was employed. In this instance, either a large dose of the mu opioid receptor selective neuropeptide ENDO-2 is given or vehicle. When the analgesic effects are no longer evident, a second analgesic dose of ENDO-2 is given. The second analgesic dose of ENDO-2 is effective in the group pre-treated with saline, but not in the group that was pre-treated with the large dose of ENDO-2. When agmatine or when one of the SSA is given together with the large pre-treatment dose of ENDO-2, the second analgesic dose of ENDO-2 is effective. In this bioassay, agmatine and most of the SSAs prevented the development of opioid tolerance.
Formula I compounds from Table 2 were evaluated for their impact on the development of opioid analgesic tolerance when dosed central (intrathecally) and systemically (intraperitoneally). […] When a high dose of ENDO-2 is intrathecally injected a subsequent analgesic dose is no longer effective (30 minutes later) (Stone et al., 1997). This is a model of opioid-induced analgesic tolerance.
When that second group received a second injection of ENDO-2 (same dose as in the SAL group), the analgesic effect was not observed. Analgesic tolerance to ENDO-2 was, therefore, induced. […] AG 4 nmol (third bar from left).

female mice = experiment: oral oxycodone self-administration model of opioid addiction (active vs control lever); type: in vivo
Protocol: FIGS. 6A and 6B show an in vivo model of opioid addiction in mice. […] Open symbols represent the lever pressing of mice on the “control” lever that result in no reward. Solid symbols represent the lever pressing of mice on the “active lever” which results in delivery of a 70 μL volume of oxycodone into a receptacle. The mice lick or drink the opioid from the receptacle.
Formula I compounds were assessed for similar effects in a model of oral oxycodone self-administration. […] Standard enclosed operant conditioning chambers modeled opioid addiction where in response to a light cue, mice have an opportunity to choose between one of two levers. Pressing one lever (the “Active” lever) results in delivery of a small quantity of oxycodone to a drinking receptacle where the mouse can lick or drink the fluid. Pressing the other lever (termed “Control” lever) results in no reward. In this experiment, female mice were separated into two groups; both groups were trained to lever press for oxycodone reward after pressing the “Active” lever of a two lever choice. Initially one lever press results in one delivery of opioid fluid. Pressing the “control” lever offers no reward. […] On day 15, they were required to press the active lever 3 times to seek the reward. […] The mice were given six injections over a period of 8 days. […] Responses were monitored from Day 20-40 of the experiment. […]

[2] = cardiovascular measures / heart rate after i.v. injection; conditions: in vivo
[3] = system: mice with chronic pain induced by nerve-injury; experiment: spinal nerve injury-induced neuropathic pain, von Frey monofilament tactile hypersensitivity; type: in vivo
nerve-injured mice [4] = experiment: rotarod assay of motor dysfunction and sedation; conditions: for rotarod performance: intravenously administered, doses effective in nerve-injured mice, 30 minutes post-injection
mice [5] = experiment: development of chronic systemic morphine tolerance (s.c. morphine, warm water 52° C. tail flick test); type: in vivo; conditions: for development of systemic morphine tolerance: systemic co-administration with morphine (FIGS. 7B-D)
Protocol: (§1) Doses were administered t.i.d. every 8 hours for 4 days. On day 6, four cumulative doses of morphine were given subcutaneously to assess tolerance in the warm water (52° C.) tail flick test.

mice [6] = experiment: development of central morphine tolerance (intrathecal morphine, warm water tail flick test); type: in vivo; conditions: for ED50 (nmol, i.t.): tail flick day 4
Protocol: On day 4, four cumulative doses of morphine were given intrathecally to assess tolerance in the warm water tail flick test.
as §1

rats = conditions: Morgan et al. 2002; cited from earlier work
[7] = in vivo
nerve-injured mice [8] = conditions: intrathecal, previously observed; cited from earlier work
[9] = co-administered intrathecally (it) with tolerance-inducing ENDO-2 pre-treatment, agmatine 4 nmol
[10] = delivered systemically, 100 mg/kg ip, with intrathecal ENDO-2 pre-treatment
[11] = IV, 0.45, 1.35, 4.5 micromoles/kg, induction and maintenance phase, ipsilateral hindpaw
[12] = delivered systemically, ip, dose not given
[13] = morphine i.t. ED50 (interval in brackets) after pre-treatment Morphine (10 nmol, i.t.) + compound (10 nmol, i.t.) or VEH b.i.d. 3 days

Compound | development of opioid analgesic tolerance to ENDO-2 (mice [1]; [9]) | development of opioid analgesic tolerance to ENDO-2 (mice [1]; [10]) | impact on cardiovascular measures [2] | hindpaw withdrawal thresholds (von Frey) [3, 11] | rotarod performance (nerve-injured mice [4]) | development of opioid analgesic tolerance to ENDO-2 (mice [1]; [12]) | development of systemic morphine tolerance (mice [5]) | other results
CC(=O)NCCCCNC(=N)N [J-5, N-(4-guanidinobutyl)acetamide] | prevented the development of opioid analgesic tolerance | prevented the development of opioid analgesic tolerance |  |  |  |  |  | 
CC(=O)NCCCCN/C(=N\C(=O)OC(C)(C)C)NC(=O)OC(C)(C)C [J-4, 4-(2,3-bis(tert-butyloxycarbonyl)guanidino)butylacetamide] |  |  | no impact on cardiovascular measures | the hindpaw withdrawal thresholds elevated toward control levels of responding | did not impact rotarod performance | prevented the development of opioid analgesic tolerance |  | preference for active versus control lever (oxycodone) (female mice; intraperitoneal (IP) injection prior to session (FIG. 6B)): showed greatly reduced preference for the active versus the control lever; preference for active versus control lever (oxycodone) (female mice; intravenous injections, 30 mg/kg, six injections over 8 days): showed little preference for the lever after injections were initiated; reduction of established neuropathic pain compared with agmatine at the same dose ([3]; IV, 1.35 micromoles/kg, maintenance phase for J-4 (FIG. 2F vs 2B)): distinctly greater than that of agmatine at the same dose
CCOC(=O)/N=C(\NCCCCNC(C)=O)NC(=O)OCC [J-3] | prevented the development of opioid analgesic tolerance |  | no impact on cardiovascular measures | the hindpaw withdrawal thresholds elevated toward control levels of responding | did not impact rotarod performance | prevented the development of opioid analgesic tolerance |  | response compared to the response of agmatine ([3]; IV, 0.45, 1.35, 4.5 micromoles/kg): No significant difference
CCOC(=O)/N=C(/N)NCCCCN [J-7, 4-(2-(ethoxycarbonyl)guanidino) butan-1-aminium 2,2,2-trifluoroacetate] |  | prevented the development of opioid analgesic tolerance |  |  |  |  |  | development of opioid analgesic tolerance to ENDO-2 (mice [1]; systemically delivered, 10 mg/kg dose): prevented the development of opioid analgesic tolerance
CCOC(=O)/N=C(/N)NCCCCNC(C)=O [J-6] | prevented the development of opioid analgesic tolerance | prevented the development of opioid analgesic tolerance |  |  |  |  |  | 
CN1CC[C@]23c4c5ccc(O)c4O[C@H]2[C@@H](O)C=C[C@H]3[C@H]1C5 [Morphine, morphine, reference compound] |  |  |  |  |  |  |  | ED50 (mice [5]; Mus musculus, sc, 144 h, morphine s.c. ED50 after pre-treatment Morphine (10 mg/kg, s.c.) + compound (3 mg/kg s.c.) or VEH t.i.d. 4 days, tail flick day 6, read-out: ED50 (95% CI) (mg/kg, s.c.)): 24.9 mg/kg; ED50 (nmol, i.t.) (mice [6]; [13]): 10.84 (4.94, 23.82) nmol
N=C(N)NCCCCN [agmatine, 1-(4-aminobutyl)guanidine, reference compound] | protected against the induction of opioid tolerance |  |  | the hindpaw withdrawal thresholds elevated toward control levels of responding | did not impact rotarod performance |  | reduces or prevents the development of systemic morphine tolerance | heroin-induced self-administration (rats): diminishes heroin-induced self-administration in rats; impact on cardiovascular measures [7]: no impact on cardiovascular measures; rotarod performance (nerve-injured mice [8]): does not impact rotarod performance
CCOC(=O)/N=C(/N)NCCCCNC(=O)OCC [J-1, ethyl (amino((4-((ethoxycarbonyl)amino)butyl)amino)methylene)carbamate] |  |  |  |  |  |  | reduces or prevents the development of systemic morphine tolerance | time to onset of effect compared to agmatine ([3]; mouse, in vivo): significantly earlier time to onset of effect; development of central morphine tolerance (mice [6]; intrathecal co-administration with morphine (FIG. 7A)): prevented the development of central morphine tolerance; ED50 (nmol, i.t.) (mice [6]; [13]): 2.86 (2.41, 3.40) nmol; ED50 (nmol, i.t.) (mice [6]; morphine i.t. ED50 (interval in brackets) after pre-treatment Saline + compound (10 nmol, i.t.) b.i.d. 3 days): 3.82 (2.95, 4.94) nmol; development of opioid analgesic tolerance to ENDO-2 (mice [1]; systemically, dose range of 1-30 mg/kg): did not prevent the development of opioid analgesic tolerance
CCOC(=O)/N=C(\NCCCCN)NC(=O)OCC.Cl [J-8, 4-(2,3-bis(ethoxycarbonyl)guanidino)butan-1-aminium chloride] | prevented the development of opioid analgesic tolerance |  | no impact |  |  | prevented the development of opioid analgesic tolerance |  | hindpaw withdrawal thresholds (von Frey) ([3]; IV, five doses 0.045, 0.0135, 0.45, 1.35, 4.5 micromoles/kg (approximately 1-100 mg/kg), induction phase): the hindpaw withdrawal thresholds elevated significantly toward control levels of responding in a dose-dependent manner; motor impairment (nerve-injured mice [4]; early side effects studies): no impact
CCOC(=O)NCCCCNC(=N)N [J-2, ethyl (4-guanidinobutyl)carbamate] | prevented the development of opioid analgesic tolerance | prevented the development of opioid analgesic tolerance |  |  |  |  | reduces or prevents the development of systemic morphine tolerance | 
